Assay results published in ChEMBL document CHEMBL3297661, “1-Substituted-5-[(3,5-dinitrobenzyl)sulfanyl]-1H-tetrazoles and their isosteric analogs: A new class of selective antitubercular agents active against drug-susceptible and multidrug-resistant mycobacteria” (Eur J Med Chem, 2014).
In brackets after ≈: the same amount, converted by molar mass.

Tests used:
[1] = system: Pseudomonas aeruginosa; experiment: Antibacterial activity against Pseudomonas aeruginosa ATCC 9027 after 48 hrs by broth microdilution method; format: functional; settings: ATCC 9027, 48 h
[2] = system: Candida albicans; experiment: Antifungal activity against Candida albicans ATCC 44859 after 24 hrs by broth microdilution method; format: functional; settings: ATCC 44859, 24 h
[3] = system: Candida albicans; experiment: Antifungal activity against Candida albicans ATCC 44859 after 48 hrs by broth microdilution method; format: functional; settings: ATCC 44859, 48 h
[4] = system: Candida tropicalis; experiment: Antifungal activity against Candida tropicalis 156 after 24 hrs by broth microdilution method; format: functional; settings: Candida tropicalis, 156, 24 h
[5] = system: Candida tropicalis; experiment: Antifungal activity against Candida tropicalis 156 after 48 hrs by broth microdilution method; format: functional; settings: Candida tropicalis, 156, 48 h
[6] = system: Pichia kudriavzevii; experiment: Antifungal activity against Candida krusei E28 after 24 hrs by broth microdilution method; format: functional; settings: E28, 24 h
[7] = system: Pichia kudriavzevii; experiment: Antifungal activity against Candida krusei E28 after 48 hrs by broth microdilution method; format: functional; settings: E28, 48 h
[8] = system: Nakaseomyces glabratus; experiment: Antifungal activity against Candida glabrata 20/I after 24 hrs by broth microdilution method; format: functional
[9] = system: Nakaseomyces glabratus; experiment: Antifungal activity against Candida glabrata 20/I after 48 hrs by broth microdilution method; format: functional
[10] = system: Trichosporon asahii; experiment: Antifungal activity against Trichosporon asahii 1188 after 24 hrs by broth microdilution method; format: functional; settings: Trichosporon asahii, 1188, 24 h
[11] = system: Trichosporon asahii; experiment: Antifungal activity against Trichosporon asahii 1188 after 48 hrs by broth microdilution method; format: functional; settings: Trichosporon asahii, 1188, 48 h
[12] = system: Aspergillus fumigatus; experiment: Antifungal activity against Aspergillus fumigatus 231 after 24 hrs by broth microdilution method; format: functional, organism-based; settings: Aspergillus fumigatus, 231, 24 h
[13] = system: Aspergillus fumigatus; experiment: Antifungal activity against Aspergillus fumigatus 231 after 48 hrs by broth microdilution method; format: functional, organism-based; settings: Aspergillus fumigatus, 231, 48 h
[14] = system: Lichtheimia corymbifera; experiment: Antifungal activity against Absidia corymbifera 272 after 24 hrs by broth microdilution method; format: functional, organism-based; settings: Lichtheimia corymbifera, 272, 24 h
[15] = system: Lichtheimia corymbifera; experiment: Antifungal activity against Absidia corymbifera 272 after 48 hrs by broth microdilution method; format: functional, organism-based; settings: Lichtheimia corymbifera, 272, 48 h
[16] = system: Trichophyton mentagrophytes; experiment: Antifungal activity against Trichophyton mentagrophytes 445 after 72 hrs by broth microdilution method; format: functional, organism-based; settings: Trichophyton mentagrophytes, 445, 72 h
[17] = system: Trichophyton mentagrophytes; experiment: Antifungal activity against Trichophyton mentagrophytes 445 after 120 hrs by broth microdilution method; format: functional, organism-based; settings: Trichophyton mentagrophytes, 445, 120 h
[18] = Cytotoxicity against human HeLa cells assessed as cell viability at 30 uM after 48 hrs by MTT assay; format: cell-based; settings: read-out: Activity
[19] = Cytotoxicity against human HuH7 cells assessed as cell viability at 30 uM after 48 hrs by MTT assay; format: cell-based, Huh-7; settings: read-out: Activity
[20] = Cytotoxicity against human HepG2 cells assessed as cell viability at 30 uM after 48 hrs by MTT assay; format: cell-based; settings: read-out: Activity
[21] = Cytotoxicity against MDCK2 cells assessed as cell viability at 30 uM after 48 hrs by MTT assay; format: cell-based, Canis lupus familiaris, MDCK-II; settings: dog, read-out: Activity
[22] = system: HeLa; experiment: Cytotoxicity against human HeLa cells assessed as reduction in cell viability after 48 hrs by MTT assay; format: cell-based
[23] = Cytotoxicity against human HuH7 cells assessed as reduction in cell viability after 48 hrs by MTT assay; format: cell-based; settings: Huh-7, 48 h
[24] = Cytotoxicity against MDCK2 cells assessed as reduction in cell viability after 48 hrs by MTT assay; format: cell-based; settings: Canis lupus familiaris, MDCK-II
[25] = system: HepG2; experiment: Cytotoxicity against human HepG2 cells assessed as reduction in cell viability after 48 hrs by MTT assay; format: cell-based; settings: HepG2, 48 h
[26] = system: Mycobacterium tuberculosis; experiment: Antimycobacterial activity against Mycobacterium tuberculosis CNCTC My 331/88 after 14 days by micromethod; format: functional; settings: CNCTC My 331/88, 336 h
[27] = system: Mycobacterium tuberculosis; experiment: Antimycobacterial activity against Mycobacterium tuberculosis CNCTC My 331/88 after 21 days by micromethod; format: functional; settings: CNCTC My 331/88, 504 h
[28] = system: Mycobacterium avium; experiment: Antimycobacterial activity against Mycobacterium avium CNCTC My 330/88 after 14 days by micromethod; format: functional; settings: CNCTC My 330/88, 336 h
[29] = system: Mycobacterium avium; experiment: Antimycobacterial activity against Mycobacterium avium CNCTC My 330/88 after 21 days by micromethod; format: functional; settings: CNCTC My 330/88, 504 h
[30] = system: Mycobacterium kansasii; experiment: Antimycobacterial activity against Mycobacterium kansasii CNCTC My 235/80 after 7 days by micromethod; format: functional; settings: CNCTC My 235/80, 168 h
[31] = system: Mycobacterium kansasii; experiment: Antimycobacterial activity against Mycobacterium kansasii CNCTC My 235/80 after 14 days by micromethod; format: functional; settings: CNCTC My 235/80, 336 h
[32] = system: Mycobacterium kansasii; experiment: Antimycobacterial activity against Mycobacterium kansasii CNCTC My 235/80 after 21 days by micromethod; format: functional; settings: CNCTC My 235/80, 504 h
[33] = system: Mycobacterium kansasii; experiment: Antimycobacterial activity against Mycobacterium kansasii 6509/96 after 7 days by micromethod; format: functional; settings: 6509/96, 168 h
[34] = system: Mycobacterium kansasii; experiment: Antimycobacterial activity against Mycobacterium kansasii 6509/96 after 14 days by micromethod; format: functional; settings: 6509/96, 336 h
[35] = system: Mycobacterium kansasii; experiment: Antimycobacterial activity against Mycobacterium kansasii 6509/96 after 21 days by micromethod; format: functional; settings: 6509/96, 504 h
[36] = system: Staphylococcus aureus; experiment: Antibacterial activity against Staphylococcus aureus ATCC 6538 after 24 hrs by broth microdilution method; format: functional; settings: ATCC 6538, 24 h
[37] = system: Staphylococcus aureus; experiment: Antibacterial activity against Staphylococcus aureus ATCC 6538 after 48 hrs by broth microdilution method; format: functional; settings: ATCC 6538, 48 h
[38] = system: Staphylococcus aureus; experiment: Antibacterial activity against methicillin-resistant Staphylococcus aureus H 5996/08 after 24 hrs by broth microdilution method; format: functional; settings: H 5996/08, 24 h
[39] = system: Staphylococcus aureus; experiment: Antibacterial activity against methicillin-resistant Staphylococcus aureus H 5996/08 after 48 hrs by broth microdilution method; format: functional; settings: H 5996/08, 48 h
[40] = system: Staphylococcus epidermidis; experiment: Antibacterial activity against Staphylococcus epidermidis H 6966/08 after 24 hrs by broth microdilution method; format: functional; settings: H 6966/08, 24 h
[41] = system: Staphylococcus epidermidis; experiment: Antibacterial activity against Staphylococcus epidermidis H 6966/08 after 48 hrs by broth microdilution method; format: functional; settings: H 6966/08, 48 h
[42] = system: Enterococcus faecalis; experiment: Antibacterial activity against Enterococcus faecalis J 14365/08 after 24 hrs by broth microdilution method; format: functional; settings: J 14365/08, 24 h
[43] = system: Enterococcus faecalis; experiment: Antibacterial activity against Enterococcus faecalis J 14365/08 after 48 hrs by broth microdilution method; format: functional; settings: J 14365/08, 48 h
[44] = system: Escherichia coli; experiment: Antibacterial activity against Escherichia coli ATCC 8739 after 24 hrs by broth microdilution method; format: functional; settings: ATCC 8739, ATCC 8739, 24 h
[45] = system: Escherichia coli; experiment: Antibacterial activity against Escherichia coli ATCC 8739 after 48 hrs by broth microdilution method; format: functional; settings: ATCC 8739, ATCC 8739, 48 h
[46] = system: Klebsiella pneumoniae; experiment: Antibacterial activity against Klebsiella pneumoniae D 11750/08 after 24 hrs by broth microdilution method; format: functional; settings: D 11750/08, 24 h
[47] = system: Klebsiella pneumoniae; experiment: Antibacterial activity against Klebsiella pneumoniae D 11750/08 after 48 hrs by broth microdilution method; format: functional; settings: D 11750/08, 48 h
[48] = system: Klebsiella pneumoniae; experiment: Antibacterial activity against extended spectrum beta-lactamase producing Klebsiella pneumoniae J 14368/08 after 24 hrs by broth microdilution method; format: functional; settings: J 14368/08, 24 h
[49] = system: Klebsiella pneumoniae; experiment: Antibacterial activity against extended spectrum beta-lactamase producing Klebsiella pneumoniae J 14368/08 after 48 hrs by broth microdilution method; format: functional; settings: J 14368/08, 48 h
[50] = system: Pseudomonas aeruginosa; experiment: Antibacterial activity against Pseudomonas aeruginosa ATCC 9027 after 24 hrs by broth microdilution method; format: functional; settings: ATCC 9027, 24 h

With O=[N+]([O-])c1cc(C[Se]c2nnnn2C2CCCCC2)cc([N+](=O)[O-])c1 as the molecule, how does the IC95 [1] read?
The IC95 was > 500 µM.

What about the IC80 [2] of the same molecule?
The IC80 was > 500 µM.

What about the IC80 [3] of the same molecule?
The IC80 was > 500 µM.

And the IC80 [4]?
The IC80 was > 500 µM.

What about the IC80 [5] of the same molecule?
Its IC80 is > 500 µM.

And the IC80 [6]?
The IC80 was > 500 µM.

What about the IC80 [7] of the same molecule?
Its IC80 is > 500 µM.

And the IC80 [8]?
Its IC80 is > 500 µM.

What about the IC80 [9] of the same molecule?
Its IC80 is > 500 µM.

What about the IC80 [10] of the same molecule?
Its IC80 is > 500 µM.

What about the IC80 [11] of the same molecule?
Its IC80 is > 500 µM.

And the IC50 [12]?
The IC50 was > 500 µM.

And the IC50 [13]?
The IC50 was > 500 µM.

What about the IC50 [14] of the same molecule?
The IC50 was > 500 µM.

What about the IC50 [15] of the same molecule?
Its IC50 is > 500 µM.

What about the IC50 [16] of the same molecule?
Its IC50 is > 500 µM.

And the IC50 [17]?
Its IC50 is > 500 µM.

What about the viability at 48 h, 30 µM [18] of the same molecule?
Its viability at 48 h, 30 µM is 66%.

And the viability at 48 h, 30 µM [19]?
Its viability at 48 h, 30 µM is 125%.

What about the viability at 48 h, 30 µM [20] of the same molecule?
The viability at 48 h, 30 µM was 87%.

And the viability at 48 h, 30 µM [21]?
Its viability at 48 h, 30 µM is 7%.

And the IC50 [22]?
The IC50 was > 30 µM.

What about the IC50 [23] of the same molecule?
The IC50 was > 30 µM.

And the IC50 [24]?
Its IC50 is 19 µM.

And the IC50 [25]?
The IC50 was > 30 µM.

What about the MIC [26] of the same molecule?
The MIC was 1 µM (≈ 0.411 µg/mL).

What about the MIC [27] of the same molecule?
Its MIC is 2 µM (≈ 0.823 µg/mL).

What about the MIC [28] of the same molecule?
Its MIC is 32 µM (≈ 13.2 µg/mL).

And the MIC [29]?
Its MIC is 32 µM (≈ 13.2 µg/mL).

And the MIC [30]?
The MIC was 1 µM (≈ 0.411 µg/mL).

What about the MIC [31] of the same molecule?
The MIC was 1 µM (≈ 0.411 µg/mL).

What about the MIC [32] of the same molecule?
The MIC was 2 µM (≈ 0.823 µg/mL).

What about the MIC [33] of the same molecule?
Its MIC is 2 µM (≈ 0.823 µg/mL).

And the MIC [34]?
The MIC was 4 µM (≈ 1.65 µg/mL).

And the MIC [35]?
The MIC was 4 µM (≈ 1.65 µg/mL).

And the IC95 [36]?
Its IC95 is > 500 µM.

And the IC95 [37]?
The IC95 was > 500 µM.

What about the IC95 [38] of the same molecule?
The IC95 was > 500 µM.

What about the IC95 [39] of the same molecule?
The IC95 was > 500 µM.

And the IC95 [40]?
Its IC95 is > 500 µM.

And the IC95 [41]?
The IC95 was > 500 µM.

What about the IC95 [42] of the same molecule?
The IC95 was > 500 µM.

What about the IC95 [43] of the same molecule?
Its IC95 is > 500 µM.

And the IC95 [44]?
Its IC95 is > 500 µM.

What about the IC95 [45] of the same molecule?
The IC95 was > 500 µM.

What about the IC95 [46] of the same molecule?
The IC95 was > 500 µM.

And the IC95 [47]?
The IC95 was > 500 µM.

What about the IC95 [48] of the same molecule?
The IC95 was > 500 µM.

And the IC95 [49]?
The IC95 was > 500 µM.

What about the IC95 [50] of the same molecule?
Its IC95 is > 500 µM.
